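48-hour exposure; five concentrations; linearly interpolated endpoints. GI50 marks 50% less growth. TGI marks complete inhibition of growth.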
Key:
Test in all cases: NCI-60 cell line screen, 48 h
U251 CNS = tested on: U251 CNS
HS 578T breast = tested on: HS 578T breast
HCC-2998 colon = tested on: HCC-2998 colon
T-47D breast = tested on: T-47D breast
NCI-H460 lung = tested on: NCI-H460 lung
HOP-62 NSCLC = tested on: HOP-62 NSCLC
TK-10 renal = tested on: TK-10 renal
SN12C renal = tested on: SN12C renal
SK-MEL-2 melanoma = tested on: SK-MEL-2 melanoma
MOLT-4 leukemia = tested on: MOLT-4 leukemia

Row | SMILES | TGI (U251 CNS) | TGI (HS 578T breast) | TGI (HCC-2998 colon) | TGI (T-47D breast) | TGI (NCI-H460 lung) | TGI (HOP-62 NSCLC) | TGI (TK-10 renal) | TGI (SN12C renal) | TGI (SK-MEL-2 melanoma) | TGI (MOLT-4 leukemia) | GI50 (U251 CNS) | GI50 (HS 578T breast) | GI50 (HCC-2998 colon) | GI50 (T-47D breast) | GI50 (NCI-H460 lung) | GI50 (HOP-62 NSCLC) | GI50 (TK-10 renal) | GI50 (SN12C renal) | GI50 (SK-MEL-2 melanoma) | GI50 (MOLT-4 leukemia)
1 | CN1C(=O)C2(c3ccccc31)C1CC3C(CO1)C1C2C3(CO)CN1C#N (stereo not given) | > 100 µM | > 100 µM | > 100 µM | > 100 µM | > 100 µM | > 100 µM | > 100 µM | > 100 µM | > 100 µM | > 100 µM |  |  |  |  |  |  |  |  |  | 
2 | CCOC(=O)c1cc(NS(=O)(=O)c2ccc(C)cc2)cc(C(=O)OCC)c1 | > 100 µM | 69.9 µM | 70.8 µM | 83.6 µM | > 100 µM | > 100 µM | > 100 µM | > 100 µM | > 100 µM | > 100 µM | 51.3 µM | 26.4 µM | 19.5 µM | 21.1 µM | 37.5 µM | 79.6 µM | > 100 µM | 78.1 µM | 28.3 µM | 26.6 µM
3 | COc1ccc(-c2cn(-c3cc(OC)c(OC)c(OC)c3)c(=O)[nH]2)cc1OC | > 100 µM | > 100 µM | > 100 µM | > 100 µM | > 100 µM | > 100 µM | > 100 µM | > 100 µM | > 100 µM | > 100 µM | > 100 µM | 20.2 µM | > 100 µM | > 100 µM | > 100 µM | > 100 µM | > 100 µM | > 100 µM | > 100 µM | > 100 µM
4 | O=c1oc2ccc(Br)cc2c(=O)n1-c1ccc(Cl)cc1F | > 39.2 µM | 5.69 µM | 9.53 µM | 5.65 µM | 10.7 µM | 9.13 µM | 18.9 µM | 5.16 µM | 4.5 µM | 5.22 µM | 1.26 µM | 0.553 µM | 2.68 µM | 0.597 µM | 0.739 µM | 2.17 µM | 4.19 µM | 0.82 µM | 0.69 µM | 1.7 µM
5 | NC(N)=Nc1ccc(/C=C2\C=Cc3ccccc32)cc1 | 3.31 µM | 28.6 µM | 3.15 µM | 7.39 µM | 4.51 µM | 6.23 µM | 4.04 µM | 13.2 µM | 11.6 µM | 5.22 µM | 1.72 µM | 5.38 µM | 1.69 µM | 2.48 µM | 2.01 µM | 2.4 µM | 2.02 µM | 2.95 µM | 4.83 µM | 2.41 µM
6 | O=[N+]([O-])c1oc2ccc3ccccc3c2c1CCO | 56.9 µM | 27.7 µM | 1.24 µM | 73.3 µM | 0.819 µM | > 67.1 µM | 27.7 µM | > 52 µM | 3.94 µM | > 100 µM |  |  |  |  |  |  |  |  |  | 
7 | O=c1cccc2n1CC1CNC[C@H]2C1 | > 100 µM | > 100 µM | > 100 µM | > 100 µM | > 100 µM | > 100 µM | > 100 µM | > 100 µM | > 100 µM | > 100 µM |  |  |  |  |  |  |  |  |  | 
8 | CCCN(CCC)c1ccc(C=O)c(C)c1 | > 100 µM | > 100 µM | > 100 µM | 98.9 µM | > 100 µM | > 100 µM | > 100 µM | > 100 µM | > 100 µM | > 100 µM | 38.5 µM | 39.7 µM | 52.4 µM | 20.8 µM | 46.5 µM | 98.1 µM | 41.6 µM | 56.7 µM | 30.9 µM | 39.8 µM
9 | Nc1ncn([C@H]2C[C@H](OP(=O)(O)OC[C@H]3O[C@@H](n4cnc5c(=O)[nH]c(N)nc54)C[C@@H]3O)[C@@H](CO)O2)c(=O)n1 | > 100 µM | > 100 µM | > 100 µM | > 100 µM | > 100 µM | > 100 µM | > 100 µM | > 100 µM | > 100 µM | > 100 µM | > 100 µM | > 100 µM | > 100 µM | > 100 µM | 7.44 µM | 9.27 µM | > 100 µM | 51.4 µM | > 100 µM | > 100 µM

Reference: PubChem BioAssay (NCI)
